Where a SMILES comes first, the peptide text is derived from it. Where no end group is shown, it is not given here.
Assays:
Rat Skin = assay: Skin test, intradermal titration in rat skin in vivo; conditions: read 20 minutes after intradermal challenge
Method: (§1) Skin tests were carried out in the shaved backs of animals (rats and baboons) immediately after intravenous injection of pontamine sky blue (5%) in aqueous sodium chloride solution (0.9%) at a dose of 0.1 ml per kilogram of body weight in the case of rats and 5 ml per animal in the case of baboons.
(§2) Peptide in aqueous sodium chloride solution (0.9%), or saline control, were injected intradernally in 0.05 ml or 0.10 ml volumes. Skin reactions were read 20 minutes after intradernal challenge.

[1] = system: Rat Peritoneal Mast Cells; assay: Histamine release from rat peritoneal mast cells (Rat Mast Cell in vitro test); format: cell-based; conditions: for EC50: average of a number of experiments, read-out: ACTIVITY: average concentration of peptide to give approximately 50% release of available histamine from rat mast cells
Description: (§3) (a) (1) Histamine, (2) Cr^51 and (3) Lactic Dehydrogenase Release from Rat Peritoneal Mast Cells (Rat Mast Cell in vitro test)
(§4) Mast cells, derived from the peritoneal washings of three male, outbred Wistar rates (250-300 g), were purified by the procedure according to Cooper and Stanworth (Preparative biochem. 4(2), 105, 1975).
(§5) The purified cells were washed twice in Dulbecco's incomplete (i.e. free from mineral salts) buffer and then resuspended in Dulbecco's medium to the required volume. In a typical experiment, sufficient cells were available for 30 duplicate challenges, i.e. 60 samples and in this case the resuspension volume employed was 6.1 mls. 0.1 ml of cell suspension were taken for estimating the cell count.
One third of the cell suspension was employed. To 0.9 ml duplicate aliquots of challenge solution, prepared in complete Dulbecco's medium and prewarmed to 37° C., was added 0.1 ml of cell suspension. The solutions were then shaken gently, and allowed to incubate for 5 minutes at 37° C. The reaction tubes were then quickly removed from the incubator and placed in an ice bath. Supernatants were then seqparated from the cell population following centrifugation for 3 minutes at 1000 r.p.m. The cell residues were then treated with 2 mls of 0.4 N perchloric acid and allowed to stand for approximately 30 minutes at ambient temperature. The precipitated protein was removed by centrifugation and the supernatant solutions set aside for histamine analysis. The original supernatant solutions were treated with 1.0 ml of 0.8 N perchlorate and then treated in a similar manner to the cell residues. Histamine was measured by the method according to Evans, Lewis and Thompson (Life Sciences, 12, 327, 1973) using a Technicon Auto-analyser. Histamine release was calculated as a percentage of total histamine available in each challenge solution.

Baboon Skin = assay: Skin test, intradermal titration in baboon skin in vivo; conditions: for ACTIVITY: average concentration of peptide to give an end point in intradernal titrations in baboon skin: read 20 minutes after intradermal challenge
Method: as §1, §2

[2] = system: Rat Peritoneal Mast Cells; assay: Cr^51 and lactic dehydrogenase (LDH) release from rat peritoneal mast cells; format: cell-based; conditions: Rat Mast Cells in vitro
Description: as §3, §4, §5
One third of the cell suspension was employed. […] Activity present in the whole recovered supernatants was measured using a Tracer Laboratory Spectromatic γ counter. The percentage of Cr^51 released was assessed in relation to the values obtained for the positive and negative control solutions.
One third of the cell suspension was employed. […] The solutions were incubated at ambient temperature for 20 minutes and the fluorescence emission was then measured. […] The LDH activity was assessed in terms of the increase of fluorescence over control due to NADH formation following lactate addition. […]

[3] = system: peritoneal mast cells of ovalbumen-immunised Brown Norway rats; assay: Cross desensitisation between antigen and peptide in the in vitro rat mast cell system; format: cell-based
Method: (c) Cross Desensitisation in the vitro rat mast cell system between antigen and peptide
Brown Norway rats were immunised intraperitoneally with 100 μg of ovalbumen (XOA) in lmg `alum`. On day 27, peritoneal mast cells were removed, bulked and washed. Aliquots of cells were desensitised by the addition of 4×5 minute incubations with various XOA or peptide concentrations or buffer alone. The cells were then submitted to an optimal histamine releasing challenge of peptide, XOA, or challenged with buffer alone.

[4] = cells desensitised with the substance in 4 rising steps (BRL 21547 5 × 10^-8 to 10^-6 M; XOA 0.005 to 0.1 μg/ml), challenge Buffer
[5] = cells desensitised with the substance in 4 rising steps, challenge BRL 21547 (10^-5 M)
[6] = cells desensitised with the substance in 4 rising steps, challenge XOA lμg/ml
[7] = desensitisation steps 1-4 Buffer, challenge with the substance (BRL 21547 10^-5 M; XOA lμg/ml)

EC50 [1] | Molecule | ACTIVITY: average concentration of peptide to give an end point in intradernal titrations in rat skin (Rat Skin) | ACTIVITY: average concentration of peptide to give an end point in intradernal titrations in baboon skin (Baboon Skin) | Inhibition of Activity (Baboon Skin; by Antihistamine or Intal-like drug) | LDH/^51 Cr Release ([2]; at 10^-4 M peptide) | cross-desensitisation in rat mast cells in vitro between peptide and antigen (in words) [3] | Total average % histamine release [3, 4] | Total average % histamine release [3, 5] | Total average % histamine release [3, 6] | Total average % histamine release [3, 7] | Inhibition of Activity ([1]; inhibition of the peptide's histamine release by Intal (10^-4)) | LDH/^51 Cr Release ([2]; at 10^-6 M)
33 µM | KTKGSGFFVF-OH [Example No. 4, LysThrLysGlySerGlyPhePheValPheOH] | 100 µM | 10000 nM | – | – | – | – | – | – | – | – | –
0.15 µM | COC(=O)[C@H](Cc1ccccc1)NC(=O)[C@H](Cc1ccccc1)NC(=O)CNC(=O)[C@H](CO)NC(=O)CNC(=O)[C@H](CCCCN)NC(=O)[C@@H](NC(=O)[C@H](CCCCN)NC(=O)[C@@H](N)CCCNC(=N)N)[C@@H](C)O [Example No. 2, ArgLysThrLysGlySerGlyPhePheOMe] (H-RKTKGSGFF-OMe) | 100 µM | 100 nM | – | – | – | – | – | – | – | – | –
9.2 µM | COC(=O)[C@H](Cc1ccccc1)NC(=O)[C@H](Cc1ccccc1)NC(=O)CNC(=O)[C@H](CO)NC(=O)CNC(=O)[C@H](CCCCN)NC(=O)[C@@H](NC(=O)[C@H](CCCCN)NC(=O)[C@H](CCCNC(=N)N)NC(=O)[C@@H]1CCCN1)[C@@H](C)O [Example No. 5, ProArgLysThrLysGlySerGlyPhePheOMe] (H-PRKTKGSGFF-OMe) | 100 µM | 100 nM | – | – | – | – | – | – | – | – | –
1 µM | COC(=O)[C@H](Cc1ccccc1)NC(=O)[C@@H](NC(=O)[C@H](Cc1ccccc1)NC(=O)[C@H](Cc1ccccc1)NC(=O)CNC(=O)[C@H](CO)NC(=O)CNC(=O)[C@H](CCCCN)NC(=O)[C@@H](NC(=O)[C@@H](N)CCCCN)[C@@H](C)O)C(C)C [Example No. 3, LysThrLysGlySerGlyPhePheValPheOMe] (H-KTKGSGFFVF-OMe) | 10 µM | 10 nM | Partial | None | cross-desensitisation | 6% | 6% | 17% | 47% | – | –
10 µM | KTKGSGFF-OH [Example No. 6, LysThrLysGlySerGlyPhePheOH] | 100 µM | 10000 nM | – | – | – | – | – | – | – | – | –
7.5 µM | COC(=O)[C@H](Cc1ccccc1)NC(=O)[C@H](Cc1ccccc1)NC(=O)CNC(=O)[C@H](CO)NC(=O)CNC(=O)[C@H](CCCCN)NC(=O)[C@@H](NC(=O)[C@@H](N)CCCCN)[C@@H](C)O [Example No. 1, LysThrLysGlySerGlyPhePheOMe] (H-KTKGSGFF-OMe) | 100 µM | 500 nM | – | – | – | – | – | – | – | 50% | None
– | XOA: ovalbumen (XOA), the antigen used to immunise Brown Norway rats and to challenge or desensitise their mast cells [reference compound] | – | – | – | – | – | 6% | 6% | 6% | 56% | – | –
